What was measured:
MOLM-13 [1] = experiment: Cell cycle arrest in human MOLM13 cells assessed as accumulation at G0/G1 phase at 10 nM after 24 hrs by propidium iodide staining-based flow cytometric analysis (reference value: 44.53%); type: functional
MV4-11 [2] = experiment: Induction of apoptosis in human MV4-11 cells assessed as early apoptotic cells at 10 nM after 48 hrs by Annexin V/propidium iodide staining based flow cytometry (reference value: 2.76%); type: functional
MOLM-13 [3] = experiment: Induction of apoptosis in human MOLM13 cells assessed as necrotic cells at 10 nM after 48 hrs by Annexin V/propidium iodide staining based flow cytometry (reference value: 0.29%); type: functional
MV4-11 [4] = experiment: Induction of apoptosis in human MV4-11 cells assessed as late apoptotic cells at 1 nM after 48 hrs by Annexin V/propidium iodide staining based flow cytometry (reference value: 2.83%); type: functional
MOLM-13 [5] = experiment: Cell cycle arrest in human MOLM13 cells assessed as accumulation at S phase at 30 nM after 24 hrs by propidium iodide staining-based flow cytometric analysis (reference value: 41.95%); type: functional
MV4-11 [6] = experiment: Induction of apoptosis in human MV4-11 cells assessed as viable cells at 1 uM after 48 hrs by Annexin V/propidium iodide staining based flow cytometry (reference value: 94.4%); type: functional; settings: MV4-11, 48 h, read-out: Activity
[7] = Toxicity in NOD/SCID mouse xenografted with human MV4-11 cells at 10 mg/kg, po qd for 18 days; type: organism-based; settings: in vivo, 432 h
MOLM-13 [8] = experiment: Induction of apoptosis in human MOLM13 cells assessed as early apoptotic cells at 10 nM after 48 hrs by Annexin V/propidium iodide staining based flow cytometry (reference value: 5.97%); type: functional
MOLM-13 [9] = experiment: cells; settings: Homo sapiens, MOLM-13, 72 h
Description: Antiproliferative activity against human MOLM13 cells harboring FLT3-ITD mutant measured after 72 hrs by MTT assay

MV4-11 [10] = experiment: Induction of apoptosis in human MV4-11 cells assessed as viable cells at 1 nM after 48 hrs by Annexin V/propidium iodide staining based flow cytometry (reference value: 94.4%); type: functional; settings: MV4-11, 48 h, read-out: Activity
MOLM-13 [11] = experiment: Cell cycle arrest in human MOLM13 cells assessed as accumulation at G0/G1 phase at 1 nM after 24 hrs by propidium iodide staining-based flow cytometric analysis (reference value: 44.53%); type: functional
MOLM-13 [12] = experiment: Antitumour activity against human MOLM13 cells xenografted in NOD/SCID mouse assessed as tumour growth inibition at 10 mg/kg, po qd for 10 days measured every two days during compound dosing by caliper method relative to control; type: functional; settings: MOLM-13, po, read-out: TGI
MV4-11 [13] = experiment: Antitumour activity against human MV4-11 cells xenografted in NOD/SCID mouse assessed as tumour growth inhibition at 10 mg/kg, po qd for 18 days measured every two days during compound dosing by caliper method relative to control; type: functional; settings: MV4-11, po, read-out: TGI
MV4-11 [14] = experiment: Induction of apoptosis in human MV4-11 cells assessed as viable cells at 10 uM after 48 hrs by Annexin V/propidium iodide staining based flow cytometry (reference value: 94.4%); type: functional; settings: MV4-11, 48 h, read-out: Activity
MOLM-13 [15] = experiment: Induction of apoptosis in human MOLM13 cells assessed as early apoptotic cells at 1 uM after 48 hrs by Annexin V/propidium iodide staining based flow cytometry (reference value: 5.97%); type: functional
MV4-11 [16] = experiment: Cell cycle arrest in human MV4-11 cells assessed as accumulation at G0/G1 phase at 30 nM after 24 hrs by propidium iodide staining-based flow cytometric analysis (reference value: 48.76%); type: functional
MOLM-13 [17] = experiment: Induction of apoptosis in human MOLM13 cells assessed as late apoptotic cells at 1 uM after 48 hrs by Annexin V/propidium iodide staining based flow cytometry (reference value: 5.52%); type: functional
Homo sapiens = organism: Homo sapiens; experiment: Inhibition of MAPK in human MOLM13 cells assessed as ratio of phosphorylated ERK to beta-actin level at 100 nM after 2 hrs by Western blot analysis relative to control; type: cell-based
MV4-11 [18] = experiment: Inhibition of MAPK in human MV4-11 cells assessed as ratio of phosphorylated ERK to beta-actin level at 100 nM after 2 hrs by Western blot analysis relative to control; type: cell-based
MOLM-13 [19] = experiment: Cell cycle arrest in human MOLM13 cells assessed as accumulation at S phase at 1 nM after 24 hrs by propidium iodide staining-based flow cytometric analysis (reference value: 41.95%); type: functional
MOLM-13 [20] = experiment: Cell cycle arrest in human MOLM13 cells assessed as accumulation at G2/M phase at 30 nM after 24 hrs by propidium iodide staining-based flow cytometric analysis (reference value: 13.52%); type: functional
MV4-11 [21] = experiment: Induction of apoptosis in human MV4-11 cells assessed as necrotic cells at 10 nM after 48 hrs by Annexin V/propidium iodide staining based flow cytometry (reference value: 0.06%); type: functional
MOLM-13 [22] = experiment: Induction of apoptosis in human MOLM13 cells assessed as necrotic cells at 10 uM after 48 hrs by Annexin V/propidium iodide staining based flow cytometry (reference value: 0.29%); type: functional
MOLM-13 [23] = experiment: Induction of apoptosis in human MOLM13 cells after 48 hrs by Annexin V/propidium iodide staining-based flow cytometry; type: functional, cell-based
MV4-11 [24] = experiment: Cell cycle arrest in human MV4-11 cells assessed as accumulation at S phase at 3 nM after 24 hrs by propidium iodide staining-based flow cytometric analysis (reference value: 30.12%); type: functional
MV4-11 [25] = experiment: Cell cycle arrest in human MV4-11 cells assessed as accumulation at G0/G1 phase at 3 nM after 24 hrs by propidium iodide staining-based flow cytometric analysis (reference value: 48.76%); type: functional
MOLM-13 [26] = experiment: Induction of apoptosis in human MOLM13 cells assessed as late apoptotic cells at 1 nM after 48 hrs by Annexin V/propidium iodide staining based flow cytometry (reference value: 5.52%); type: functional
MV4-11 [27] = experiment: Cell cycle arrest in human MV4-11 cells assessed as accumulation at S phase at 10 nM after 24 hrs by propidium iodide staining-based flow cytometric analysis (reference value: 30.12%); type: functional
BaF3 = experiment: cells; settings: Mus musculus, BaF3, 72 h
Description: Antiproliferative activity against mouse BAF3 cells harboring FLT3-ITD-D835V mutant measured after 72 hrs by MTT assay

[28] = molecular target: Receptor-type tyrosine-protein kinase FLT3 (Homo sapiens) (UniProt P36888); experiment: Inhibition of FLT3 autophosphorylation in human MOLM13 cells assessed as ratio of phosphorylated FLT3 to beta-actin level at 100 nM after 2 hrs by Western blot analysis relative to control; type: cell-based
Chain of Receptor-type tyrosine-protein kinase FLT3 (Homo sapiens) (P36888 whole entry): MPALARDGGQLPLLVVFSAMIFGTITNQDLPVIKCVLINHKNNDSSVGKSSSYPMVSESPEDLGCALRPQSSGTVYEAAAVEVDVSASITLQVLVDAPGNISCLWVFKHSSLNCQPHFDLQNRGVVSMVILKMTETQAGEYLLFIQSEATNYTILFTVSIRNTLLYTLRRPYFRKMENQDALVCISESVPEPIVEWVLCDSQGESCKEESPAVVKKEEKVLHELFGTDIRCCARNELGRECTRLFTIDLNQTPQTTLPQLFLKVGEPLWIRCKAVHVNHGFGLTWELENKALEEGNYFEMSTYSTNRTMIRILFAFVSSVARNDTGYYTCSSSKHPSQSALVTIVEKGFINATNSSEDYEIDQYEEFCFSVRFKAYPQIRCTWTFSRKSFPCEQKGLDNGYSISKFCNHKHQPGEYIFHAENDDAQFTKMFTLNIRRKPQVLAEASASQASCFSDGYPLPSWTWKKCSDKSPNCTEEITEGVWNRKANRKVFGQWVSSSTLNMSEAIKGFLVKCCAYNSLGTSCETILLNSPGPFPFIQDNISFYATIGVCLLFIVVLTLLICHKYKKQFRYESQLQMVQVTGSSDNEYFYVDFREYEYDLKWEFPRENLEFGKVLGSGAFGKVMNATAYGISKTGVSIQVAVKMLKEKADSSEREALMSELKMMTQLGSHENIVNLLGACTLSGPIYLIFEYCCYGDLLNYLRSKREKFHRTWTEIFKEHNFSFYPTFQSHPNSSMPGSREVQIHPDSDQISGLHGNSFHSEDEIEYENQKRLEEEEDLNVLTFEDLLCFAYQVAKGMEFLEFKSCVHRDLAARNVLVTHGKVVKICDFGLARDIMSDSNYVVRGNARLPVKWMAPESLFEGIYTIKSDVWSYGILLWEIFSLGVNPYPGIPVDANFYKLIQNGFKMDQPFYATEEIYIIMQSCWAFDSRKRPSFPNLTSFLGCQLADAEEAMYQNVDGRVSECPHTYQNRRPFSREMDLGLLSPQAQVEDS

MV4-11 [29] = experiment: Cell cycle arrest in human MV4-11 cells assessed as accumulation at G2/M phase at 10 nM after 24 hrs by propidium iodide staining-based flow cytometric analysis (reference value: 21.12%); type: functional

IC50 (MOLM-13 [9]): 0.022 nM | IC50 (BaF3): 20.7 nM | fold change (FC) [28]: 0
Compound: C=CCn1cc(-c2ccc(NC(=O)Nc3cc(C(C)(C)C)on3)cc2)c2c(N)ncnc21
Activity (MOLM-13 [1]): 94.62% | Activity (MV4-11 [2]): 9.57% | Activity (MOLM-13 [3]): 0.12% | Activity (MV4-11 [4]): 4.62% | Activity (MOLM-13 [5]): 2.84% | viability at 1 µM (MV4-11 [6]): 55% | Activity [7]: Non-Toxic | Activity (MOLM-13 [8]): 15.5% | viability at 0.001 µM (MV4-11 [10]): 92.7% | Activity (MOLM-13 [11]): 53.77% | inhibition in vivo at 10 mg/kg (MOLM-13 [12]): 96% | inhibition in vivo at 10 mg/kg (MV4-11 [13]): 100% | viability at 10 µM (MV4-11 [14]): 18.1% | Activity (MOLM-13 [15]): 23.5% | Activity (MV4-11 [16]): 96.25% | Activity (MOLM-13 [17]): 46.8% | fold change (FC) (Homo sapiens): 0.12 | fold change (FC) (MV4-11 [18]): 0 | Activity (MOLM-13 [19]): 35.23% | Activity (MOLM-13 [20]): 2.47% | Activity (MV4-11 [21]): 0.2% | Activity (MOLM-13 [22]): 0.4% | Activity (MOLM-13 [23]): Dose-dependent effect | Activity (MV4-11 [24]): 8.81% | Activity (MV4-11 [25]): 87.11% | Activity (MOLM-13 [26]): 8.57% | Activity (MV4-11 [27]): 2.06% | Activity (MV4-11 [29]): 2.2%
